In the assay the target is T1, GST-Aurora A (Homo sapiens, UniProt O14965).
T1 construct: N-terminal GST fusion with full length Aurora A (1-403 amino acids); purchased Carna Biosciences 05-101
T1 sequence (O14965 1-403): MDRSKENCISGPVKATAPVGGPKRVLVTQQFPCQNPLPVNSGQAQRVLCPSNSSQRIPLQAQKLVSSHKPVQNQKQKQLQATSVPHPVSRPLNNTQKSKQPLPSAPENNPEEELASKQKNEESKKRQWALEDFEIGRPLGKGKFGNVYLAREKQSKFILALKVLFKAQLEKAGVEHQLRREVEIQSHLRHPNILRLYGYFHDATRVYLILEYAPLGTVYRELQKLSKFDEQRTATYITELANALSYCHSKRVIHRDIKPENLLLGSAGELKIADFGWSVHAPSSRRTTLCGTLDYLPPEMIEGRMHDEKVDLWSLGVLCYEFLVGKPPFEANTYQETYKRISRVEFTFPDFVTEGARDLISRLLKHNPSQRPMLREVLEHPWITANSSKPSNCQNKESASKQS
The assay can be described thus: Aurora A IC50, Caliper LC3000 mobility shift assay. The conditions noted are these: LC3000 method; 15 uM ATP (the KM value); read-out: Aurora Kinase A Activity (IC50). The format is biochemical. The method, boiled down: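 Readout: percent conversion of FITC-LRRASLG (1 uM) to phosphopeptide, resolved electrophoretically on a Caliper LC3000, fitted against inhibitor concentration for IC50. Reaction: N-terminal GST full-length Aurora A, ATP at its KM (15 uM), pH 7.5 HEPES with MgCl2/DTT, 25 C for 90 min.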

One may read the IC50 as the concentration that gives 50% inhibition. Consider `O=c1[nH]c2ncccc2c2cc(Nc3cccc(F)c3)ccc12` [Example 31, 9-(3-Fluoro-phenylamino)-5H-benzo[c][1,8]naphthyridin-6-one], for which the IC50 is more than 100 nM.

Source of the values: US8735584B2 (Merck Patent GmbH, priority 2008, dated 2014).
